“And” between values parts separate entries of the source, which are not always exact repeats. Equal values may be shown once. Read-outs that look alike come from different tables or passages of the source.
How the values were obtained:
[1] = system: NMDAR in primary rat hippocampal neurons; type: cell-based, rat (Sprague-Dawley)
GluN2A subunit = conditions: ref [41], cited from earlier work

SMILES | inhibition of iCa^2+ influx [1] | NMDAR subunit specificity (GluN2A subunit; 60 nM) | NMDAR subunit specificity (GluN2A subunit; 400 nM)
C[C@H](NC(c1cccc2[nH]c(=O)c(=O)[nH]c12)P(=O)(O)O)c1ccc(Br)cc1 (stereo partly shown) [NVP-AAM007] | 46% and 64% | specifically inhibits the GluN2A subunit | non-subunit specific
CC(C(O)c1ccc(O)cc1)N1CCC(Cc2ccccc2)CC1 (stereo not shown) [ifenprodil] | 64% | – | –
